Measurements published in patent publication US20230277534A1 (Plexxikon Inc., priority 2011, published 2023).

Columns and labels:
[1] = tested on: COLO205 colon adenocarcinoma cells (B-Raf V600E mutation); assay: COLO205 cell growth inhibition (ATPlite); format: cell-based; settings: Homo sapiens, COLO 205, 72 h, 3 days
Experimental: Compounds are assessed in a variety of cell based assays.
On day 1, cells are counted, then centrifuged in a conical tube for 5 minutes at 1000 rpm.
On day 2, compound at a maximum concentration of 5 mM is serially diluted 1:3 (e.g. 10 μL with 30 μL dimethyl sulfoxide) for a total of 8 point titration with DMSO as a control. A 1 μL aliquot of each dilution point and control is added to 249 μL growth media and 50 μL is added to a well containing cells, providing 10 μM compound at the maximum concentration point. The cells are incubated for 3 days at 37° C. in 5% CO2.
ATPlite is added 25 μL to each well, shake for 2 minutes, and the cells are incubated at room temperature for 10 minutes, then luminescence is read on Safire reader. The measured luminescence correlates directly with cell number, such that the reading as a function of compound concentration is used to determine the IC50 value.

B-Raf V600E = B-Raf V600E (Homo sapiens (Human), UniProt P15056, V600E); assay: B-Raf V600E kinase biochemical activity assay (AlphaScreen, biotin-MEK1 substrate); settings: 100 μM ATP
Experimental: Assays for biochemical and cell based activity are known in the art, for example, as described in PCT publication WO 2007/002433, the disclosure of which is hereby incorporated by reference as it relates to such assays. For example, the biochemical activity IC50 values are determined with respect to inhibition of B-Raf V600E kinase activity or p-Erk kinase activity, where inhibition of phosphorylation of a peptide substrate is measured as a function of compound concentration. Compounds to be tested are diluted in dimethyl sulfoxide to a concentration of 0.1 mM. These are serially diluted 15 μL into 30 μL of dimethyl sulfoxide seven times in 96 well plates for a total of 8 dilution points, and for each dilution point 1 μL is added to a well of an assay plate. Plates are prepared such that each well in a 384 well plate contains 1 μL of compound in 10 μL volume with 0.1 ng Raf enzyme (i.e. any of B-Raf, c-Raf-1 or B-Raf V600E, Upstate Biotechnology or prepared by methods known to one of skill in the art), 50 mM HEPES, pH 7.0, 50 mM NaCl, 2 mM MgCl2, 1 mM MnCl2, 0.01% Tween-20, 1 mM DTT, and 100 nM biotin-MEK1 as substrate. The reaction is started with addition of 10 μL of 200 μM ATP (i.e. final 100 μM ATP). After incubation of the kinase reaction for 45 minutes at room temperature, 5 μL/well of Stop Solution is added (25 mM Hepes pH 7.5, 100 mM EDTA, 0.01% BSA with donor beads (Streptavidin coated beads, Perkin Elmer), acceptor beads (Protein A coated, Perkin Elmer), and anti phosphor MEK1/2 antibody (CellSignal), each at final concentration 10 μg/mL). The plates are incubated for 3 hours at room temperature and read on Envision reader (Perkin Elmer). Phosphorylation of Mek1 results in binding of the anti-phosphor-MEK1/2antibody and association of the donor and acceptor beads such that signal correlates with kinase activity. The signal vs. compound concentration is used to determine the IC50.

Chain of B-Raf V600E (P15056 whole entry V600E): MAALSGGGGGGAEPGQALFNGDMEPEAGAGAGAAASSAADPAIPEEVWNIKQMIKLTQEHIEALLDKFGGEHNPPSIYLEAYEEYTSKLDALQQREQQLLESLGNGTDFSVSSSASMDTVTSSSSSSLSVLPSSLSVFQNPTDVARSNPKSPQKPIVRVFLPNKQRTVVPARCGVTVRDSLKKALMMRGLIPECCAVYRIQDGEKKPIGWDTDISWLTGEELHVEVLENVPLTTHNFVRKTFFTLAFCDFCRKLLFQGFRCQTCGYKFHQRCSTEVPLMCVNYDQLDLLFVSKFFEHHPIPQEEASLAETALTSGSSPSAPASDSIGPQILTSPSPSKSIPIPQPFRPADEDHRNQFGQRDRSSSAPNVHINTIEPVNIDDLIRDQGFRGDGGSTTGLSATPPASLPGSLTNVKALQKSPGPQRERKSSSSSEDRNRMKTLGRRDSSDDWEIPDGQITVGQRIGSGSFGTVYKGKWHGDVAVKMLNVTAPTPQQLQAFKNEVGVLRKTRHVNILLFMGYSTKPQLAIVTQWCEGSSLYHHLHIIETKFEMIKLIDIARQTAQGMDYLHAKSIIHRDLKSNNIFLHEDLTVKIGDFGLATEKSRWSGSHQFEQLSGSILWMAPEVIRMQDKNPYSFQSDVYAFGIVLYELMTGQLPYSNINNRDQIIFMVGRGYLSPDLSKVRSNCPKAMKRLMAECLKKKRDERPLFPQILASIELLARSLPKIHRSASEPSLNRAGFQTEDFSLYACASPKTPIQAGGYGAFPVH

| Compound | IC50 [1] [µM] | IC50 (B-Raf V600E) [µM] |
| --- | --- | --- |
| O=C(c1c(F)ccc(NS(=O)(=O)N2CCCC2)c1F)c1c[nH]c2ncc(F)c(NCC3CC3)c12 [Compound P-0016, N-[3-[4-(cyclopropylmethylamino)-5-fluoro-1H-pyrrolo[2,3-b]pyridine-3-carbonyl]-2,4-difluoro-phenyl]pyrrolidine-1-sulfonamide] | < 1 | < 0.1 |
| COCCS(=O)(=O)Nc1cccc(C(=O)c2c[nH]c3ncc(-c4cnc(OC)nc4)cc23)c1F [Compound P-0065, N-[2-fluoro-3-[5-(2-methoxypyrimidin-5-yl)-1H-pyrrolo[2,3-b]pyridine-3-carbonyl]phenyl]-2-methoxy-ethanesulfonamide] | > 1 | < 0.1 |
| CC(C)CN(C)S(=O)(=O)Nc1cccc(C(=O)c2c[nH]c3ncc(I)cc23)c1F [Compound P-0070, 3-[2-fluoro-3-[[isobutyl(methyl)sulfamoyl]amino]benzoyl]-5-iodo-1H-pyrrolo[2,3-b]pyridine] | > 1 |  |
| CCC(C)S(=O)(=O)Nc1cccc(C(=O)c2c[nH]c3ncc(-c4cnc(C5CC5)nc4)cc23)c1F (stereo not shown) [Compound P-0228, N-[3-[5-(2-cyclopropylpyrimidin-5-yl)-1H-pyrrolo[2,3-b]pyridine-3-carbonyl]-2-fluoro-phenyl]butane-2-sulfonamide] | < 1 |  |
| CN(C)S(=O)(=O)Nc1ccc(F)c(C(=O)c2c[nH]c3ncc(-c4ccc(C5(C#N)CC5)cc4)cc23)c1F [Compound P-0237, 5-[4-(1-cyanocyclopropyl)phenyl]-3-[3-(dimethylsulfamoylamino)-2,6-difluoro-benzoyl]-1H-pyrrolo[2,3-b]pyridine] | < 1 |  |
| CCN(C)S(=O)(=O)Nc1ccc(F)c(C(=O)c2c[nH]c3ncc(-c4ccc(C5(C#N)CC5)cc4)cc23)c1F [Compound P-0239, 5-[4-(1-cyanocyclopropyl)phenyl]-3-[3-[[ethyl(methyl)sulfamoyl]amino]-2,6-difluoro-benzoyl]-1H-pyrrolo[2,3-b]pyridine] | < 1 |  |
| N#CC1(c2ccc(-c3cnc4[nH]cc(C(=O)c5c(F)ccc(NS(=O)(=O)N6CCCC6)c5F)c4c3)cc2)CC1 [Compound P-0248, N-[3-[5-[4-(1-cyanocyclopropyl)phenyl]-1H-pyrrolo[2,3-b]pyridine-3-carbonyl]-2,4-difluoro-phenyl]pyrrolidine-1-sulfonamide] | < 1 |  |
| CCN(C)S(=O)(=O)Nc1ccc(F)c(C(=O)c2c[nH]c3ncc(-c4cnc(N5CCN(C(=O)OC(C)(C)C)CC5)nc4)cc23)c1F [Compound P-0264, tert-butyl 4-[5-[3-[3-[[ethyl(methyl)sulfamoyl]amino]-2,6-difluoro-benzoyl]-1H-pyrrolo[2,3-b]pyridin-5-yl]pyrimidin-2-yl]piperazine-1-carboxylate] |  | < 0.1 |
| O=C(c1c(F)ccc(NS(=O)(=O)N2CCCC2)c1F)c1c[nH]c2ncc(-c3cnc(N4CCOCC4)nc3)cc12 [Compound P-0266, N-[2,4-difluoro-3-[5-(2-morpholinopyrimidin-5-yl)-1H-pyrrolo[2,3-b]pyridine-3-carbonyl]phenyl]pyrrolidine-1-sulfonamide] |  | < 0.1 |
| CC(=O)N(C)C1CCN(S(=O)(=O)Nc2cccc(C(=O)c3c[nH]c4ncc(-c5cnc(C6CC6)nc5)cc34)c2F)C1 (stereo not shown) [Compound P-0267, N-[1-[[3-[5-(2-cyclopropylpyrimidin-5-yl)-1H-pyrrolo[2,3-b]pyridine-3-carbonyl]-2-fluoro-phenyl]sulfamoyl]pyrrolidin-3-yl]-N-methyl-acetamide] |  | > 0.1 |
| COc1ncc(-c2cnc3[nH]cc(C(=O)c4c(F)ccc(NS(=O)(=O)N5CCCC5)c4F)c3c2)s1 [Compound P-0270, N-[2,4-difluoro-3-[5-(2-methoxythiazol-5-yl)-1H-pyrrolo[2,3-b]pyridine-3-carbonyl]phenyl]pyrrolidine-1-sulfonamide] |  | < 0.1 |
| CNC1CCN(S(=O)(=O)Nc2cccc(C(=O)c3c[nH]c4ncc(-c5cnc(C6CC6)nc5)cc34)c2F)C1 (stereo not shown) [Compound P-0272, N-[3-[5-(2-cyclopropylpyrimidin-5-yl)-1H-pyrrolo[2,3-b]pyridine-3-carbonyl]-2-fluoro-phenyl]-3-(methylamino)pyrrolidine-1-sulfonamide] |  | > 0.1 |
| O=C(c1c(F)ccc(NS(=O)(=O)N2CCCC2)c1F)c1c[nH]c2ncc(-c3ccncc3)cc12 [Compound P-0273, N-[2,4-difluoro-3-[5-(4-pyridyl)-1H-pyrrolo[2,3-b]pyridine-3-carbonyl]phenyl]pyrrolidine-1-sulfonamide] | < 1 |  |
| Nc1nccc(-c2cnc3[nH]cc(C(=O)c4c(F)ccc(NS(=O)(=O)N5CCCC5)c4F)c3c2)n1 [Compound P-0280, N-[3-[5-(2-aminopyrimidin-4-yl)-1H-pyrrolo[2,3-b]pyridine-3-carbonyl]-2,4-difluoro-phenyl]pyrrolidine-1-sulfonamide] | < 1 |  |
| O=C(c1c(F)ccc(NS(=O)(=O)N2CCCC2)c1F)c1c[nH]c2ncc(-c3ccnc(N4CCOCC4)c3)cc12 [Compound P-0284, N-[2,4-difluoro-3-[5-(2-morpholino-4-pyridyl)-1H-pyrrolo[2,3-b]pyridine-3-carbonyl]phenyl]pyrrolidine-1-sulfonamide] | < 1 |  |
| O=C(c1c(F)ccc(NS(=O)(=O)N2CCCC2)c1F)c1c[nH]c2ncc(-c3ccnc(OC4CCC4)c3)cc12 [Compound P-0286, N-[3-[5-[2-(cyclobutoxy)-4-pyridyl]-1H-pyrrolo[2,3-b]pyridine-3-carbonyl]-2,4-difluoro-phenyl]pyrrolidine-1-sulfonamide] |  | < 0.1 |
| COC(=O)C(C)S(=O)(=O)Nc1cccc(C(=O)c2c[nH]c3ncc(-c4cnc(C5CC5)nc4)cc23)c1F (stereo not shown) [Compound P-0291, methyl 2-[[3-[5-(2-cyclopropylpyrimidin-5-yl)-1H-pyrrolo[2,3-b]pyridine-3-carbonyl]-2-fluoro-phenyl]sulfamoyl]propanoate] |  | > 0.1 |
| CCN(C)S(=O)(=O)Nc1ccc(F)c(C(=O)c2c[nH]c3ncc(-c4cnc(N(C)C)nc4)cc23)c1F [Compound P-0292, 5-[2-(dimethylamino)pyrimidin-5-yl]-3-[3-[[ethyl(methyl)sulfamoyl]amino]-2,6-difluoro-benzoyl]-1H-pyrrolo[2,3-b]pyridine] | < 1 |  |
| O=C(c1c(F)ccc(NS(=O)(=O)N2CCCC2)c1F)c1c[nH]c2ncc(-c3cc(C(F)(F)F)ncn3)cc12 [Compound P-0294, N-[2,4-difluoro-3-[5-[6-(trifluoromethyl)pyrimidin-4-yl]-1H-pyrrolo[2,3-b]pyridine-3-carbonyl]phenyl]pyrrolidine-1-sulfonamide] |  | < 0.1 |
| CCN(C)S(=O)(=O)Nc1ccc(F)c(C(=O)c2c[nH]c3ncc(-c4cccc(N(C)C)c4)cc23)c1F [Compound P-0302, 5-[3-(dimethylamino)phenyl]-3-[3-[[ethyl(methyl)sulfamoyl]amino]-2,6-difluoro-benzoyl]-1H-pyrrolo[2,3-b]pyridine] |  | < 0.1 |
| CCN(C)S(=O)(=O)Nc1ccc(F)c(C(=O)c2c[nH]c3ncc(-c4ccc(C(=O)NC5CC5)nc4)cc23)c1F [Compound P-0312, N-cyclopropyl-5-[3-[3-[[ethyl(methyl)sulfamoyl]amino]-2,6-difluoro-benzoyl]-1H-pyrrolo[2,3-b]pyridin-5-yl]pyridine-2-carboxamide] |  | < 0.1 |
| CN1CCN(c2cc(-c3cnc4[nH]cc(C(=O)c5c(F)ccc(NS(=O)(=O)N6CCCC6)c5F)c4c3)ncn2)CC1 [Compound P-0319, N-[2,4-difluoro-3-[5-[6-(4-methylpiperazin-1-yl)pyrimidin-4-yl]-1H-pyrrolo[2,3-b]pyridine-3-carbonyl]phenyl]pyrrolidine-1-sulfonamide] |  | < 0.1 |
| C[C@H]1CCN(S(=O)(=O)Nc2ccc(F)c(C(=O)c3c[nH]c4ncc(-c5cnc(C6CC6)nc5)cc34)c2F)C1 [Compound P-0320, (3S)—N-[3-[5-(2-cyclopropylpyrimidin-5-yl)-1H-pyrrolo[2,3-b]pyridine-3-carbonyl]-2,4-difluoro-phenyl]-3-methyl-pyrrolidine-1-sulfonamide] |  | > 0.1 |
